Source: paper PMC8286840, “Identifying SARS-CoV-2 antiviral compounds by screening for small molecule inhibitors of Nsp3 papain-like protease” (Biochemical Journal, 2021)
Counter-ions that a name gives are not always drawn. Like-named read-outs stand apart in the source and are kept apart here.

Legend:
[1] = target: T1, SARS-CoV-2 PLpro (nsp3 1564–1878) (Severe acute respiratory syndrome coronavirus 2, UniProt P0DTD1); assay: biochemical; parameters: FRET-quenched peptide (Pro3) cleavage by PLpro, 10 min pre-incubation, slope over 20 min, normalised to no-compound control; conditions: high concentration screen, read-out: % of control remaining
[2] = target: T1, SARS-CoV-2 PLpro (nsp3 1564–1878); assay: biochemical; parameters: FRET-quenched peptide (Pro3) cleavage by PLpro, 10 min pre-incubation, slope over 20 min, normalised to no-compound control; conditions: low concentration screen, read-out: % of control remaining

Work on `CC1=C(O)C(=O)[C@@H]2O[C@@H]2C1=O` [(-)-Terreic acid - (1R,6S)-3-Hydroxy-4-methyl-7-oxabicyclo[4.1.0]hept-3-ene-2,5-dione] yielded a remaining activity at 3.75 µM ([1]; Well no.=2398) of 104% and a remaining activity at 1.25 µM ([2]; Well no.=2398) of 99.2%.
`NC(=O)c1cccc(NC(=O)/C=C/c2c[nH]c3ccccc23)c1` [(E)-3-(3-(1H-indol-3-yl)acrylamido)benzamide] was tested, and the remaining activity at 3.75 µM ([1]; Well no.=5576) was 93.4% and the remaining activity at 1.25 µM ([2]; Well no.=5576) was 93.5%.
Compound `NC/C=C/C(=O)O` [(E)-4-amino-2-butenoic acid] has a remaining activity at 3.75 µM ([1]; Well no.=1283) of 101% and a remaining activity at 1.25 µM ([2]; Well no.=1283) of 103%.
For `O=c1[nH]c(=O)n([C@H]2C[C@H](O)[C@@H](CO)O2)cc1/C=C/Br` [(E)-5-(2-Bromovinyl)-2'-deoxyuridine], the remaining activity at 3.75 µM ([1]; Well no.=83) was 94.4% and the remaining activity at 1.25 µM ([2]; Well no.=83) was 94.9%.
Work on `Clc1ccc(N/N=C(\c2ccccc2)c2ccccn2)nc1` [(E)-5-chloro-2-(2-(phenyl(pyridin-2-yl)methylene)hydrazinyl)pyridine] yielded a remaining activity at 3.75 µM ([1]; Well no.=5428) of 96.4% and a remaining activity at 1.25 µM ([2]; Well no.=5428) of 91.3%.
For `COc1cc(/C=C/C(=O)NCCn2c(C)cc3ccccc32)cc(OC)c1OC` [(E)-N-(2-(2-methyl-1H-indol-1-yl)ethyl)-3-(3,4,5-trimethoxyphenyl)acrylamide], the remaining activity at 3.75 µM ([1]; Well no.=5914) was 99.4% and the remaining activity at 1.25 µM ([2]; Well no.=5914) was 103%.
`O=C(O)[C@H]1Cc2ccccc2CN1` [(R)-1,2,3,4-Tetrahydro-3-isoquinolinecarboxylic acid] gave a remaining activity at 3.75 µM ([1]; Well no.=8608) of 101% and a remaining activity at 1.25 µM ([2]; Well no.=8608) of 102%.
`CC(C)C[C@@H](C(=O)O)c1cc(-c2ccc(C(F)(F)F)cc2)cc(-c2ccc(C(F)(F)F)cc2)c1` [(R)-2-(4,4''-bis(trifluoromethyl)-[1,1':3',1''-terphenyl]-5'-yl)-4-methylpentanoic acid] showed a remaining activity at 3.75 µM ([1]; Well no.=5455) of 106% and a remaining activity at 1.25 µM ([2]; Well no.=5455) of 99.6%.
Work on `COc1ccc(CC[C@H]2CCC[C@@H](CCc3ccc(OC)cc3)N2C[C@@H](O)CO)cc1` [(R)-3-((2R,6S)-2,6-bis(4-methoxyphenethyl)piperidin-1-yl)propane-1,2-diol hydrochloride] yielded a remaining activity at 3.75 µM ([1]; Well no.=5614) of 102% and a remaining activity at 1.25 µM ([2]; Well no.=5614) of 101%.
`C[C@@H](O)CC(=O)O` [(R)-3-Hydroxybutanoic acid] showed a remaining activity at 3.75 µM ([1]; Well no.=7123) of 105% and a remaining activity at 1.25 µM ([2]; Well no.=7123) of 106%.
Work on `CC(C)N(CC[C@H](c1ccccc1)c1cc(CO)ccc1O)C(C)C` [(R)-5-Hydroxymethyl Tolterodine] yielded a remaining activity at 3.75 µM ([1]; Well no.=7038) of 107% and a remaining activity at 1.25 µM ([2]; Well no.=7038) of 107%.
For `[2H]C([2H])([2H])NC[C@H](O)c1cccc(O)c1` [(R)-(-)-Phenylephrine (hydrochloride)], the remaining activity at 3.75 µM ([1]; Well no.=6707) was 95.4% and the remaining activity at 1.25 µM ([2]; Well no.=6707) was 98.6%.
With `NCc1c[nH]c(=S)n1[C@@H]1CCc2c(F)cc(F)cc2C1` [(R)-Nepicastat HCl] the remaining activity at 3.75 µM ([1]; Well no.=8886) was 92% and the remaining activity at 1.25 µM ([2]; Well no.=8886) was 91.4%.
With `N[C@H](CO)C(=O)O` [(R)-Serine] the remaining activity at 3.75 µM ([1]; Well no.=7739) was 100% and the remaining activity at 1.25 µM ([2]; Well no.=7739) was 99.9%.
With `O[C@H](c1cc(C(F)(F)F)nc2c(C(F)(F)F)cccc12)[C@@H]1CCCCN1` [(R)-[2,8-bis(trifluoromethyl)-4-quinolinyl][(2S)-2-piperidinyl]methanol hydrochloride] the remaining activity at 3.75 µM ([1]; Well no.=5875) was 113% and the remaining activity at 1.25 µM ([2]; Well no.=5875) was 105%.
Compound `NC[C@H](CC(=O)O)c1ccc(Cl)cc1` [(R)-baclofen] has a remaining activity at 3.75 µM ([1]; Well no.=5315) of 93.5% and a remaining activity at 1.25 µM ([2]; Well no.=5315) of 96.9%.
`O=C(O)[C@H]1CCCN1` [(R)-pyrrolidine-2-carboxylic acid] showed a remaining activity at 3.75 µM ([1]; Well no.=8700) of 101% and a remaining activity at 1.25 µM ([2]; Well no.=8700) of 106%.
In the case of `O=C(O)[C@@H](O)Cc1ccccc1` [(S)-2-Hydroxy-3-phenylpropanoic acid], the remaining activity at 3.75 µM ([1]; Well no.=7173) is reported as 88.8% and the remaining activity at 1.25 µM ([2]; Well no.=7173) is reported as 96.3%.
In the case of `O=C(O)C[C@H](O)C(=O)O` [(S)-2-Hydroxysuccinic acid], the remaining activity at 3.75 µM ([1]; Well no.=6825) is reported as 100% and the remaining activity at 1.25 µM ([2]; Well no.=6825) is reported as 105%.
Compound `N[C@H](C(=O)O)c1cc(O)cc(O)c1` [(S)-3,5-Dihydroxyphenylglycine] has a remaining activity at 3.75 µM ([1]; Well no.=401) of 98.7% and a remaining activity at 1.25 µM ([2]; Well no.=401) of 102%.
`C[C@H](NC(=O)CC=C1NC(=O)c2ccccc2N1)c1ccccc1` [(S)-3-(4-oxo-3,4-dihydroquinazolin-2(1H)-ylidene)-N-(1-phenylethyl)propanamide] showed a remaining activity at 3.75 µM ([1]; Well no.=6083) of 95.2% and a remaining activity at 1.25 µM ([2]; Well no.=6083) of 95.2%.
With `C[C@H](O)CC(=O)O` [(S)-3-Hydroxybutanoic acid] the remaining activity at 3.75 µM ([1]; Well no.=7301) was 105% and the remaining activity at 1.25 µM ([2]; Well no.=7301) was 109%.
`Cc1ncc(Cl)cc1NCc1ccc(C(=O)N[C@@H](CC2CCCC2)C(=O)NC2CC2)s1` [(S)-5-(((5-chloro-2-methylpyridin-3-yl)amino)methyl)-N-(3-cyclopentyl-1-(cyclopropylamino)-1-oxopropan-2-yl)thiophene-2-carboxamide] showed a remaining activity at 3.75 µM ([1]; Well no.=5550) of 99.3% and a remaining activity at 1.25 µM ([2]; Well no.=5550) of 94.4%.
With `O=C(O)c1ccc(NC(=O)[C@H](CC2CCCC2)n2cnc(C(F)(F)F)c2)nc1` [(S)-6-(3-cyclopentyl-2-(4-(trifluoromethyl)-1H-imidazol-1-yl)propanamido)nicotinic acid] the remaining activity at 3.75 µM ([1]; Well no.=6066) was 86.8% and the remaining activity at 1.25 µM ([2]; Well no.=6066) was 83%.
For `CC[C@@]1(O)C(=O)OCc2c1cc1n(c2=O)Cc2cc3ccccc3nc2-1` [(S)-(+)-Camptothecin], the remaining activity at 3.75 µM ([1]; Well no.=483) was 90.7% and the remaining activity at 1.25 µM ([2]; Well no.=483) was 100%.
Work on `CCN1CCC[C@H]1CNC(=O)c1cc(S(N)(=O)=O)ccc1OC` [(S)-(-)-Sulpiride] yielded a remaining activity at 3.75 µM ([1]; Well no.=1636) of 103% and a remaining activity at 1.25 µM ([2]; Well no.=1636) of 98.3%.
In the case of `CCCNC[C@H](O)COc1ccccc1C(=O)CCc1ccccc1` [(S)-(-)-propafenone hydrochloride], the remaining activity at 3.75 µM ([1]; Well no.=1451) is reported as 93.6% and the remaining activity at 1.25 µM ([2]; Well no.=1451) is reported as 96.2%.
With `OC[C@H]1O[C@@H](n2cnc3c(N[C@@H]4C[C@H]5CC[C@H]4C5)ncnc32)[C@H](O)[C@@H]1O` [(S)-ENBA] the remaining activity at 3.75 µM ([1]; Well no.=465) was 105% and the remaining activity at 1.25 µM ([2]; Well no.=465) was 102%.
Compound `N[C@@H](CCC(=O)O)C(=O)O` [(S)-Glutamic acid] has a remaining activity at 3.75 µM ([1]; Well no.=6165) of 96.9% and a remaining activity at 1.25 µM ([2]; Well no.=6165) of 98.9%.
`CC(C)C[C@H](O)C(=O)O` [(S)-Leucic acid] showed a remaining activity at 3.75 µM ([1]; Well no.=6633) of 109% and a remaining activity at 1.25 µM ([2]; Well no.=6633) of 108%.
In the case of `Cc1[nH]c2ccccc2c1CC(=O)N[C@@H](Cc1ccccc1)C(=O)N(C)c1ccccc1` [(S)-N-methyl-2-(2-(2-methyl-1H-indol-3-yl)acetamido)-N,3-diphenylpropanamide], the remaining activity at 3.75 µM ([1]; Well no.=5917) is reported as 103% and the remaining activity at 1.25 µM ([2]; Well no.=5917) is reported as 106%.
`CC(C)(C)NC[C@H](O)COc1nsnc1N1CCOCC1` [(S)-Timolol (Maleate)] was tested, and the remaining activity at 3.75 µM ([1]; Well no.=7667) was 94.8% and the remaining activity at 1.25 µM ([2]; Well no.=7667) was 92.8%.
In the case of `CC(C)(C)NC[C@H](O)COc1nsnc1N1CCOCC1` [(S)-Timolol maleate], the remaining activity at 3.75 µM ([1]; Well no.=1739) is reported as 97.3% and the remaining activity at 1.25 µM ([2]; Well no.=1739) is reported as 98.8%.
